# Laboratory results: patent US9505781B2, “Compositions comprising thienopyrimidine and thienopyridine compounds and methods of use thereof” (The Regents of the University of Michigan, priority 2013, dated 2016)
# Biological target: T1, menin-MLL interaction (Homo sapiens, UniProt O00255)
# T1 sequence (O00255 1-610): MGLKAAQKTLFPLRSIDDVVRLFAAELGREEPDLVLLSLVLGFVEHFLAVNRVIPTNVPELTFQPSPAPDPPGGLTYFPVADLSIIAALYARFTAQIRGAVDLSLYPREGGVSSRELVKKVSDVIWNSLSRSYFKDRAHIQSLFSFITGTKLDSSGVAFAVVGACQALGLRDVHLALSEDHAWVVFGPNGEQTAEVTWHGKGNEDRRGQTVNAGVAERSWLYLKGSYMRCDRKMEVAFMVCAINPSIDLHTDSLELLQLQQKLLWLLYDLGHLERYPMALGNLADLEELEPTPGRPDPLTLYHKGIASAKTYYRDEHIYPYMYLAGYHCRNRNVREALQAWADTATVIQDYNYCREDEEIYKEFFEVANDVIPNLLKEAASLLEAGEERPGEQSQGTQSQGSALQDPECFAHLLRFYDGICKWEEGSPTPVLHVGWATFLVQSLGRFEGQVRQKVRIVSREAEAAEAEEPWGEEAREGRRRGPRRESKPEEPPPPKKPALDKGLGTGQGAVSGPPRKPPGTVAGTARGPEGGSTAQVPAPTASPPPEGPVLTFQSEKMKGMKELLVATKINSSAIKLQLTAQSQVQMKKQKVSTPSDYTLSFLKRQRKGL
# Assay: biochemical
# Source text: Compounds that inhibit the interaction decrease the fluorescence anisotropy which is being used as a read-out for compound screening and for IC50 determination.
row,IC50 [nM],Compound
1,100 to 500,N#Cc1cc2cc(CN3CCC(Nc4ncnc5sc(CC(F)(F)F)cc45)CC3)ccc2n1Cc1cc(OCCCCC2CC2)n[nH]1 [Compound 415]
2,< 100,CS(=O)(=O)Nc1ccc(CC(=O)N2CCN(C3=NC=NC4SC(CC(F)(F)F)=CC34)CC2)c(Cl)c1 (centres unmarked) [Compound 64]
3,500 to 2000,FC(F)(F)Cc1cc2c(N3CCN(c4nnc(CC5CCCCC5)s4)CC3)ncnc2s1 [Compound 39]
4,< 100,CCN(c1ccc(CC(=O)N2CCN(C3=NC=NC4SC(CC(F)(F)F)=CC34)CC2)c(Cl)c1)S(C)(=O)=O (centres unmarked) [Compound 66]
5,< 100,N#Cc1cc2cc(CN3CCC(Nc4ncnc5sc(CC(F)(F)F)cc45)CC3)ccc2n1Cc1cn[nH]c1 [Compound 202]
6,500 to 2000,Cc1ccccc1CN1CCC(Nc2ncnc3sc(CC(C)(F)F)cc23)CC1 [Compound 155]
7,< 100,Cc1c(CN2CCC(Nc3ncnc4sc(CC(F)(F)F)cc34)CC2)ccc2c1cc(C#N)n2CCN1CCN(C(=O)CCc2ccccc2)CC1 [Compound 341]
8,100 to 500,N#Cc1ccc(CN2CCC(CNc3ncnc4sc(CC(F)(F)F)cc34)CC2)c(Cl)c1 [Compound 256]
9,100 to 500,COCc1cnc2sc(CC(F)(F)F)cc2c1NC1CCN(Cc2ccc3[nH]c(C#N)cc3c2)CC1 [Compound 281]
10,< 100,Cc1c(CN2CCC(Nc3ncnc4sc(CC(F)(F)F)cc34)CC2)ccc2c1cc(C#N)n2Cc1cnn(C)c1 [Compound 379]
11,500 to 2000,OCc1ccc(CN2CCC(Nc3ncnc4sc(CC(F)(F)F)cc34)CC2)cc1 [Compound 140]
12,100 to 500,FC(F)(F)Cc1cc2c(NCC3CCN(Cc4ccc(N5CCOCC5)cc4Cl)CC3)ncnc2s1 [Compound 259]
13,500 to 2000,FC(F)(F)c1nnc(N2CCN(c3ncnc4sc(C(F)(F)C(F)(F)F)cc34)CC2)s1 [Compound 24]
14,< 100,N#Cc1cc2cc(CN3CCC(Nc4ncnc5sc(CC(F)(F)F)cc45)CC3)ccc2n1CO [Compound 183]
15,< 100,O=C(Cc1ccc(NS(=O)(=O)C2CC2)cc1Cl)N1CCN(C2=NC=NC3SC(CC(F)(F)F)=CC23)CC1 (centres unmarked) [Compound 285]
16,< 100,Cc1c(CN2CCC(Nc3ncnc4sc(CC(F)(F)F)cc34)CC2)ccc2c1cc(C#N)n2CC1CNC(=O)C1 (centres unmarked) [Compound 430]
17,500 to 2000,OCc1ccc(CN2CCC(CNc3ncnc4sc(CC(F)(F)F)cc34)CC2)cc1 [Compound 266]
18,< 100,N#Cc1cc2c(CO)c(CN3CCC(Nc4ncnc5sc(CC(F)(F)F)cc45)CC3)ccc2n1CC(N)=O [Compound 325]
19,100 to 500,NC(=O)c1cc2cc(CN3CCC(Nc4ncnc5sc(CC(F)(F)F)cc45)CC3)ccc2[nH]1 [Compound 232]
20,500 to 2000,CC(C)c1cc2c(N3CCN(C4=NCC(C)(C)S4)CC3)ncnc2s1 [Compound 30]
21,100 to 500,CCc1ccc(CN2CCC(Nc3ncnc4sc(CC(F)(F)F)cc34)CC2)cc1 [Compound 118]
22,100 to 500,CS(=O)(=O)N(CC(N)=O)c1ccc(CC(=O)N2CCN(C3=NC=NC4SC(CC(F)(F)F)=CC34)CC2)c(Cl)c1 (centres unmarked) [Compound 84]
23,100 to 500,COCC(O)Cn1c(C#N)cc2cc(CN3CCC(Nc4ncnc5sc(CC(F)(F)F)cc45)CC3)ccc21 (centres unmarked) [Compound 237]

row,IC50 [nM],Compound
1,< 100,CO[C@H](CO)Cn1c(C#N)cc2cc(CN3CCC(Nc4ncnc5sc(CC(F)(F)F)cc45)CC3)ccc21 [Compound 191]
2,< 100,Cc1nnc(Cn2c(C#N)cc3c(C)c(CN4CCC(Nc5ncnc6sc(CC(F)(F)F)cc56)CC4)ccc32)o1 [Compound 334]
3,< 100,Cc1c(CN2CCC(Nc3ncnc4sc(CCF)cc34)CC2)ccc2[nH]c(C#N)cc12 [Compound 423]
4,100 to 500,NS(=O)(=O)c1ccc(CN2CCC(CNc3ncnc4sc(CC(F)(F)F)cc34)CC2)c(Cl)c1 [Compound 253]
5,100 to 500,FC(F)(F)Cc1cc2c(NC3CCN(Cc4cc[nH]c4)CC3)ncnc2s1 [Compound 134]
6,< 100,CS(=O)(=O)Nc1ccc(CC(=O)N2CCN(c3ncnc4sc(CC(F)(F)F)cc34)CC2)cc1 [Compound 45]
7,500 to 2000,O=C(CC1CCCCC1)N1CCN(c2ncnc3sc(CC(F)(F)F)cc23)CC1 [Compound 89]
8,< 100,CC(C)OC(CO)Cn1c(C#N)cc2cc(CN3CCC(Nc4ncnc5sc(CC(F)(F)F)cc45)CC3)ccc21 (centres unmarked) [Compound 292]
9,< 100,N#Cc1cc2cc(CN3CCC(Nc4ncnc5sc(CC(F)(F)F)cc45)CC3)ccc2n1Cc1c[nH]cn1 [Compound 185]
10,< 100,CCOc1cc2c(cc1CN1CCC(Nc3ncnc4sc(CC(F)(F)F)cc34)CC1)cc(C#N)n2CC(N)=O [Compound 216]
11,100 to 500,Cc1ccc(CN2CCC(Nc3ncnc4sc(CC(F)(F)F)cc34)CC2)c(C)c1 [Compound 120]
12,< 100,N#Cc1cc2cc(CN3CCC(Nc4ncnc5sc(CC(F)(F)F)cc45)CC3)ccc2n1Cc1c[nH]nn1 [Compound 195]
13,< 100,N#Cc1cc2c(Cl)c(CN3CCC(Nc4ncnc5sc(CC(F)(F)F)cc45)CC3)ccc2n1C[C@H](O)CO [Compound 226]
14,500 to 2000,O=C1CCc2cc(CN3CCC(Nc4ncnc5sc(CC(F)(F)F)cc45)CC3)ccc2N1 [Compound 136]
15,100 to 500,Oc1cccc(CN2CCC(Nc3ncnc4sc(CC(F)(F)F)cc34)CC2)c1 [Compound 109]
16,< 100,N#Cc1cc2c(CN)c(CN3CCC(Nc4ncnc5sc(CC(F)(F)F)cc45)CC3)ccc2[nH]1 [Compound 294]
17,< 100,COCCOC(CO)Cn1c(C#N)cc2cc(CN3CCC(Nc4ncnc5sc(CC(F)(F)F)cc45)CC3)ccc21 (centres unmarked) [Compound 316]
18,< 100,CCC(=O)N1CCN(CCCn2c(C#N)cc3cc(CN4CCC(Nc5ncnc6sc(CC(F)(F)F)cc56)CC4)ccc32)CC1 [Compound 396]
19,100 to 500,O=C(Cc1ccc2cc[nH]c2c1)N1CCN(c2ncnc3sc(CC(F)(F)F)cc23)CC1 [Compound 81]
20,< 100,N#Cc1ccc2c(CN3CCC(Nc4ncnc5sc(CC(F)(F)F)cc45)CC3)c[nH]c2c1 [Compound 206]
21,500 to 2000,CC1(C)CN=C(N2CCN(c3ncnc4sc(CCCc5ccccc5)cc34)CC2)S1 [Compound 37]
22,< 100,N#Cc1cc2cc(CN3CCC(Nc4ncnc5sc(CC(F)(F)F)cc45)CC3)ccc2n1CCN1CCNCC1 [Compound 393]
23,500 to 2000,CS(=O)(=O)N(CC#N)c1ccc(C(F)(F)C(=O)N2CCN(c3ncnc4sc(CC(F)(F)F)cc34)CC2)cc1 [Compound 104]

row,IC50 [nM],Compound
1,100 to 500,O=C(Cc1ccc(Cl)cc1)N1CCN(c2ncnc3sc(CC(F)(F)F)cc23)CC1 [Compound 71]
2,< 100,N#Cc1cc2cc(CN3CCC(Nc4ncnc5sc(CC(F)(F)F)cc45)CC3)ccc2n1CC1CC1 [Compound 178]
3,< 100,CCn1c(C#N)cc2cc(CN3CCC(Nc4ncnc5sc(CC(F)(F)F)cc45)CC3)ccc21 [Compound 177]
4,< 100,N#Cc1cc2c(C(F)F)c(CN3CCC(Nc4ncnc5sc(CC(F)(F)F)cc45)CC3)ccc2[nH]1 [Compound 305]
5,< 100,N#Cc1cc2cc(CN3CCC(Nc4ncnc5sc(CC(F)(F)F)cc45)CC3)ccc2n1CCN [Compound 186]
6,500 to 2000,N#Cc1ccc(CN2CCC(Nc3ncnc4sc(CC(F)(F)F)cc34)CC2)cc1 [Compound 144]
7,< 100,CC1(C)CN=C(N2C[C@@H]3CC[C@H]2CN3c2ncnc3sc(CC(F)(F)F)cc23)S1 [Compound 2]
8,< 100,N#Cc1cc2c(Br)c(CN3CCC(Nc4ncnc5sc(CC(F)(F)F)cc45)CC3)ccc2[nH]1 [Compound 298]
9,< 100,Cc1c(CN2CCC(Nc3ncnc4sc(CC(F)(F)F)cc34)CC2)ccc2c1cc(C#N)n2Cc1cc(Cc2ccc(=O)[nH]c2)[nH]n1 [Compound 347]
10,100 to 500,Fc1ccc(CN2CCC(Nc3ncnc4sc(CC(F)(F)F)cc34)CC2)c(F)c1 [Compound 122]
11,500 to 2000,CCCc1cc2c(N3CCN(c4nnc(C(F)(F)F)s4)CC3)ncnc2s1 [Compound 33]
12,100 to 500,COc1ccc(CC(=O)N2CCN(c3ncnc4sc(CC(F)(F)F)cc34)CC2)cc1 [Compound 74]
13,< 100,N#Cc1cc2cc(CN3CCC(Nc4ncnc5sc(CC(F)(F)F)cc45)CC3)ccc2n1CC(CO)OC1CC1 (centres unmarked) [Compound 222]
14,< 100,Cc1c(CN2CCC(Nc3ncnc4sc(CC(F)(F)F)cc34)CC2)ccc2c1cc(C#N)n2CCN1CCN(C(=O)CCC2CC2)CC1 [Compound 344]
15,< 100,Cc1c(CN2CCC(Nc3ncnc4sc(CC(F)(F)F)cc34)CC2)ccc2c1cc(C#N)n2Cc1cn(C)nn1 [Compound 303]
16,< 100,N#Cc1[nH]c2ccc(CN3CCC(Nc4ncnc5sc(CC(F)(F)F)cc45)CC3)cc2c1F [Compound 176]
17,< 100,N#Cc1cc2cc(CN3CCC(Nc4ncnc5sc(CC(F)(F)F)cc45)CC3)ccc2n1CCC(N)=O [Compound 194]
18,500 to 2000,FC(F)(F)Cc1cc2c(NC3CCN(Cc4ccc(N5CCCCC5)cc4)CC3)ncnc2s1 [Compound 145]
19,100 to 500,Cc1ccccc1CN1CCC(Nc2ncnc3sc(CC(F)(F)F)cc23)CC1 [Compound 117]
20,< 100,Cc1c(CN2CCC(Nc3ncnc4sc(CC(F)(F)F)cc34)CC2)ccc2c1cc(C#N)n2CC(O)(CO)CC1CCCCC1 (centres unmarked) [Compound 348]
21,100 to 500,N#Cc1ccc(CN2CCC(CNc3ncnc4sc(CC(F)(F)F)cc34)CC2)cc1 [Compound 263]
22,< 100,N#Cc1cc2cc(CN3CCC(Nc4ncnc5sc(CC(F)(F)F)cc45)CC3)ccc2n1CCn1cncn1 [Compound 209]
